Where two headings read alike, the source gives them in different places.
Legend:
[1] = Antianemic activity (iron-deficient diet); type: in vivo, rats; settings: iron-deficient diet + substance
Description: (§1) In the aim of correctly evaluating activity, bio-availability and toxicity of the products under exam, they were suitably vehicled by means of dissolution in mixtures of H2 O/propylene glycol/sorbitol, in equal proportions, so as to obtain for the experimental tests solutions at identical Fe^+++ titre (4 mg/ml).

[2] = Gastric tolerability: values of the lesions found on the gastric mucosa; settings: for value of the lesions on the gastric mucosa / value of the lesions on the gastric mucosa, Media (mean): oral t.i.d., 100 mg/kg iron; for value of the lesions on the gastric mucosa, Media (mean): mean of 7 animals
Description: as §1

[3] = Acute toxicity after oral administration in the male rat; type: in vivo; settings: for N° DEAD ANIMALS: 10 animals
Excerpt: ACUTE TOXICITY OF UB 1004 AFTER ORAL
ADMINISTRATION IN THE MALE RAT

[4] = Solubility / precipitation; type: physicochemical
[5] = rat, in vivo, po, 100 mg/kg
Description: as §1

[6] = oral, background; cited from earlier work
[7] = background; cited from earlier work
[8] = oral, 25 mg/Kg Fe = 367.5 mg/Kg
[9] = oral, 100 mg/Kg Fe = 1470 mg/Kg
[10] = oral, 200 mg/Kg Fe = 2940 mg/Kg
[11] = oral, 400 mg/Kg Fe = 5880 mg/Kg

Row | Compound | ERYTHROCYTES ([1]; 7 (time unit not given)) | HEMOGLOBIN ([1]; 7 (time unit not given)) [g/100 ml] | SYDEREMIA ([1]; 7 (time unit not given)) [μg/100 ml] | ERYTHROCYTES ([1]; 14 (time unit not given)) | HEMOGLOBIN ([1]; 14 (time unit not given)) [g/100 ml] | SYDEREMIA ([1]; 14 (time unit not given)) [μg/100 ml] | ERYTHROCYTES ([1]; 21 (time unit not given)) | HEMOGLOBIN ([1]; 21 (time unit not given)) [g/100 ml] | SYDEREMIA ([1]; 21 (time unit not given)) [μg/100 ml] | value of the lesions on the gastric mucosa ([2]; animal 1) | value of the lesions on the gastric mucosa ([2]; animal 2) | value of the lesions on the gastric mucosa ([2]; animal 3) | value of the lesions on the gastric mucosa ([2]; animal 4) | value of the lesions on the gastric mucosa ([2]; animal 5) | value of the lesions on the gastric mucosa ([2]; animal 6) | value of the lesions on the gastric mucosa ([2]; animal 7) | value of the lesions on the gastric mucosa, Media (mean) [2] | Solubility at pH 8 [4] | also measured
1 | O=S(=O)([O-])[O-].[Fe+2] [FERROUS SULFATE, Ferrous Sulphate, reference compound] | 7.07 ± 0.76 10^6 /mm^3 | 14.38 ± 1.91 | 247.6 ± 87.0 | 7.34 ± 0.46 10^6 /mm^3 | 15.63 ± 0.33 | 198.4 ± 52.2 | 6.94 ± 0.42 10^6 /mm^3 | 14.09 ± 1.50 | 171.0 ± 19.9 | 1 | 2 | 1 | 1 | 3 | 1 | 3 | 1.70 | – | gastric damage ([2]; conclusions): harmful at the gastric level; toxicity ([3]; conclusions): considerably toxic
2 | UB 1004: iron (ferric) complex of lysozyme glutarate, obtained in Example 1(b) with ferric glycerophosphate | 7.20 ± 0.58 10^6 /mm^3 | 14.43 ± 1.13 | 178.6 ± 57.1 | 7.20 ± 0.48 10^6 /mm^3 | 15.70 ± 1.00 | 177.5 ± 42.8 | 7.13 ± 0.26 10^6 /mm^3 | 15.58 ± 0.97 | 184.3 ± 31.8 | 0 | 0 | 0 | 0 | 0 | 0 | 0 | 0 | Complete | Precipitation with (NH4)2SO4 at 30% ([4]; (NH4)2SO4 30%): Complete; Solubility of the precipitate with (NH4)2SO4 in water ([4]; water): Complete; % DEATH-RATE [3, 8]: 0.00%; N° DEAD ANIMALS [3, 8]: 0; % DEATH-RATE ([3]; oral, 50 mg/Kg Fe = 735 mg/Kg): 0.00%; N° DEAD ANIMALS ([3]; oral, 50 mg/Kg Fe = 735 mg/Kg): 0; % DEATH-RATE [3, 9]: 0.00%; N° DEAD ANIMALS [3, 9]: 0; % DEATH-RATE [3, 10]: 0.00%; N° DEAD ANIMALS [3, 10]: 0; % DEATH-RATE [3, 11]: 0.00%; N° DEAD ANIMALS [3, 11]: 0; DL50 ([3]; oral, male rat, up to 400 mg/Kg Fe): NOT DETERMINABLE
3 | Ferritin | – | 13.88 ± 0.93 | 196.3 ± 88.9 | 6.99 ± 0.58 10^6 /mm^3 | 15.46 ± 0.93 | 217.1 ± 52.7 | 6.99 ± 0.13 10^6 /mm^3 | 14.43 ± 1.12 | 227.6 ± 25.7 | – | – | – | – | – | – | – | – | – | value of the lesions on the gastric mucosa, Media (mean) [5]: 0.28; gastrointestinal side-effects [6]: does not have gastrointestinal side-effects; water solubility [7]: hydrosoluble
4 | lysozyme glutarate: lysozyme acylated with glutaric anhydride, Example 1(a) | – | – | – | – | – | – | – | – | – | – | – | – | – | – | – | – | – | Complete | Solubility at pH 3 ([4]; pH 3): nil
